From PubChem BioAssay AID395 (SGCOxCompounds, 2006)

Target: Serine/threonine-protein kinase 16 (Homo sapiens) (UniProt O75716)
Assay: STK16 binders by thermal stabilization, biophysical, recombinant human kinase, DSF (AID 395)
Details: SYPRO orange, at 10 µM, protein 2 µM, buffer 10 mM HEPES, hits give high values

Chain of Serine/threonine-protein kinase 16 (Homo sapiens) (O75716 whole entry, looked up): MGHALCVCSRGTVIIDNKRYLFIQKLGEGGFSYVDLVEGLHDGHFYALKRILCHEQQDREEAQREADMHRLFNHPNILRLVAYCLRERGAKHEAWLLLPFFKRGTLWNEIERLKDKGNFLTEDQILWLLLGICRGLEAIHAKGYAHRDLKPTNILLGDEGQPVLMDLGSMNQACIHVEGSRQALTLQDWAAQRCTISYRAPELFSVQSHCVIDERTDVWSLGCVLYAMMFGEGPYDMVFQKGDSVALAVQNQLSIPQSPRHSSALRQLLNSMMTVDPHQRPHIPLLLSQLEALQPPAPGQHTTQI

| Compound | Tm shift [°C] |
| --- | --- |
| O=c1[nH]c2ncc(-c3cccnc3)nc2n1C1CCCC1 | 5.29 |
| Clc1cccc(Nc2ccn3ncc(-c4cccnc4)c3n2)c1 | 5.48 |
| c1ccc(-c2cnc3ccc(NCc4cccs4)nn23)cc1 | 3.62 |
| CC1N=C2SC=CN2C(=O)C1CCN1CCC(=C(c2ccccc2)c2ccc(F)cc2)CC1 (stereo unspecified) | 3.67 |
| Nc1ncnc2c1c(I)cn2[C@@H]1O[C@H](CO)C(O)C1O (stereo partly specified) | 3.88 |
| CC(C)C(CO)Nc1nc(Nc2cccc(Cl)c2)c2ncn(C(C)C)c2n1 (stereo unspecified) | 3.15 |
| Clc1cccc(Nc2ccn3ncc(-c4ccsc4)c3n2)c1 | 3.69 |
| Clc1ccc(-c2cnn3ccc(NCc4cccnc4)nc23)cc1 | 3.85 |
| Fc1ccc(CNc2ccc3ncc(-c4ccco4)n3n2)cc1 | 4.18 |
| Cc1cc(C=C2C(=O)C=CC2=O)cc(C)c1O | 3.24 |
| COC(=O)c1cnc2oc3ccc(O)cc3c2c1-c1ccccc1 | 5.35 |
| O=C1Nc2ccccc2/C1=C\c1cnc[nH]1 | 7.49 |
| O=C1c2ccccc2-c2n[nH]c3cccc1c23 | 6.85 |
| O=Nc1c(-c2c(O)[nH]c3ccccc23)[nH]c2ccccc12 | 5.13 |
| CC(C)(C)c1nc2c3cc[nH]c(=O)c3c3cc(F)ccc3c2[nH]1 | 3.46 |
| O=c1c(O)c(-c2ccc(O)c(O)c2)oc2cc(O)cc(O)c12 | 4.78 |
| O=C1Nc2ccccc2/C1=C/c1ccc[nH]1 | 4.28 |
| Clc1cccc(-c2cnc3ccc(NC4CCOCC4)nn23)c1 | 4 |
| O=c1cc(-c2ccc(O)cc2)oc2cc(O)cc(O)c12 | 4.78 |
| COc1ccc2c(c1)/C(=C/c1cnc[nH]1)C(=O)N2 | 4.35 |
| c1csc(-c2cnc3ccc(NCC4CC4)nn23)c1 | 4.3 |

Same assay, conditions: SYPRO orange, at 10 µM, protein 2 µM, buffer 10 mM HEPES, pH 7.5, NaCl 150 mM, hits give high values

| Compound | Tm shift [°C] |
| --- | --- |
| O=C(Nc1cccc(Nc2nccc(Nc3cccc(C(F)(F)F)c3)n2)c1)C1CC1 | 5.75 |
| NS(=O)(=O)c1ccc(Nc2nc(OCC3CCCCC3)c3[nH]cnc3n2)cc1 | 4.1 |
| Cc1c(O)cc(O)c2c1OC(c1ccc(O)c(O)c1)C(=O)C2=O (stereo unspecified) | 3.29 |
| O=c1cc(-c2ccc(O)c(O)c2)oc2cc(O)cc(O)c12 | 4.82 |
| CC1N=C2SC=CN2C(=O)C1CCN1CCC(=C(c2ccccc2)c2ccc(F)cc2)CC1 (stereo unspecified) | 3.2 |
| O=C(c1ccc(Nc2nccc(-c3cc4ccccc4s3)n2)cc1)N1CCC(N2CCCC2)CC1 | 8.9 |
| N=C(N)SCCCn1cc(C2=C(c3c[nH]c4ccccc34)C(=O)NC2=O)c2ccccc21 | 4.3 |
| OCC(O)CCO/N=C1/C(c2c(O)[nH]c3ccccc23)=Nc2ccccc21 (stereo unspecified) | 11.7 |
| O=Nc1c(-c2c(O)[nH]c3ccc(S(O)(O)O)cc23)[nH]c2ccccc12 | 5.7 |
| COc1cc(C2Oc3cc(O)cc(O)c3C(=O)C2=O)ccc1O (stereo unspecified) | 3.97 |
| CC(O)O/N=C1/C(c2c(O)[nH]c3cc(Br)ccc23)=Nc2ccccc21 (stereo unspecified) | 4.2 |
| O=c1cc(-c2ccccc2)oc2cc(O)cc(O)c12 | 5.74 |
| Cc1cc(Nc2nc(-c3ccccc3)nc3ccccc23)n[nH]1 | 11.1 |
| O=C1NC(=O)C(c2c[nH]c3ccccc23)=C1c1c[nH]c2ccccc12 | 3.4 |
| Nc1cccc(-c2cc3c(Oc4cccc(O)c4)ncnc3[nH]2)c1 | 5.9 |
| CCN(CC)CCNC(=O)c1c(C)[nH]c(/C=C2\C(=O)Nc3ccc(Cl)cc32)c1C | 6 |
| NC(=O)Nc1sc(-c2ccccc2)cc1C(N)=O | 4.5 |
| O=c1c(O)c(-c2ccc(O)c(O)c2)oc2cc(O)cc(O)c12 | 4.75 |
| N#C/C(=C1\Nc2ccccc2S1)c1ccnc(NCCc2cccnc2)n1 | 5.5 |
| Cn1cc(/C=C2\C(=O)Nc3ccc(S(N)(=O)=O)cc32)c2ccccc21 | 4.8 |
| CC(C)c1nn(-c2c(Cl)cccc2Cl)c2nc(Cc3ccc(OCCO)cc3)[nH]c(=O)c12 | 3.5 |
| O=Nc1c(-c2c(O)[nH]c3ccc(I)cc23)[nH]c2ccccc12 | 4.2 |
| Nc1nc(Nc2ccc(S(N)(=O)=O)cc2)nn1C(=S)Nc1c(F)cccc1F | 7.8 |
| Cc1nc(N)sc1-c1ccnc(Nc2cccc(-n3oo3)c2)n1 | 10.7 |
| O=C1NCc2c1c1c3ccccc3[nH]c1c1[nH]c3ccccc3c21 | 3.9 |
| O=c1c(O)c(-c2ccc(O)cc2)oc2cc(O)cc(O)c12 | 3.87 |
| O=c1[nH]c(O)c2c1c1c3ccccc3nc1n1cncc21 | 5.4 |
| O=c1c(O)c(-c2ccc(O)c(O)c2)oc2cc(O)ccc12 | 8.54 |
| O=C1C(=O)C(c2cccc(O)c2)Oc2ccccc21 (stereo unspecified) | 4.41 |
| NCCCn1cc(C2=C(c3c[nH]c4ccccc34)C(=O)NC2=O)c2ccccc21 | 4.96 |
